According to publication PMC8058344, “ARIH1 signaling promotes anti-tumor immunity by targeting PD-L1 for proteasomal degradation” (Nature Communications, 2021):

Key:
EGFR = EGFR (Homo sapiens, UniProt P00533); test: In vitro kinase specificity profiling; format: biochemical; details: EGFR wild-type
PD-L1 in H1975 cells = test: PD-L1 levels in H1975 cells by immunoblotting and flow cytometry; format: cell-based, human; details: H1975 cells, 10 μM ES-072 for 12 h
Procedure: Fig. 1 EGFR inhibitors were screened to reduce membrane PD-L1 levels. a High-throughput screening of 2125 FDA-approved drugs or drug candidates. U937 cells were incubated with IFNγ (100 ng/mL) for 48 h, treated with the drugs at 10 μM for 12 h. Ruxolitinib (Rux) was used as a positive control. The hit compounds that induced the decrease of PD-L1 levels are shown in blue. The depth of blue represents decreased level of PD-L1. The heatmap represents the targeted pathways obtained from the high-throughput screening, based upon decreased membrane PD-L1 level detected by flow cytometry. b Immunoblotting of PD-L1 in U937 cells treated with ES-072 (ES) or AZD9291 (AZD) at indicated concentrations for 12 h. ES and AZD are EGFR inhibitors. c, d Median fluorescence intensity (MFI) (c) and relative quantification (d) of PD-L1 in U937 cells treated with 10 μM ES-072 or 10 μM AZD9291 for 12 h. Data represent means ± SEM, n = 18, 6 independent repeats, ****P < 0.0001. e–g Immunoblotting (e, f) and flow cytometry (g) analysis of PD-L1 levels in U937 cells treated with 10 μM ES-072 or 10 μM AZD9291 for the indicated times. h, i Immunoblottings (h) of PD-L1 and β-TrCP, relative quantification (i) of PD-L1 MFI in H1975 cells transfected with non-targeting siRNA (si-CTRL) or β-TrCP siRNAs (si-β-TrCP) and treated with or without 10 μM ES-072/AZD9291 for 12 h. Data represent means ± SEM, n = 9, 3 independent repeats, NS: no significant; ****P < 0.0001. j–l Immunoblotting (j) and flow cytometry analysis (k) with relative quantification (l) of PD-L1 in H1975 cells treated with 10 μM ES-072 or AZD9291, and/or 5 μM LY2090314 (LY) for 12 h. […]
Fig. 5 GSK3α-mediated phosphorylation of PD-L1 promotes PD-L1-ARIH1 interaction and ARIH1-induced degradation. a Co-IP analysis for the interaction of K48-ubiquitin, ARIH1 (HA), and PD-L1 in HEK293T cells transfected with HA-ARIH1 and Flag-PD-L1 (WT, S279A, S283A, or 2SA), treated with MG132 (10 μM) for 6 h; HA-tagged empty vector (HA-EV) was transfected as a negative control. b Co-IP analysis for the interaction of ARIH1 and PD-L1 in HEK293T cells transfected with HA-ARIH1 and Flag-PD-L1 (WT or 2SA), treated with 10 μM ES-072 for 24 h, Flag-tagged empty vector (Flag-EV) was transfected as a negative control. c HEK293T cells were transfected with Flag-PD-L1. Co-IP analysis for the interaction of ubiquitin and PD-L1 in HEK293T cells transfected with ARIH1-siRNAs or HA-GSK3α and treated with MG132 (10 μM) for 6 h; non-targeting siRNA (si-CTRL) was transfected as a negative control. d Immunoblots of PD-L1 and ARIH1 (HA) in H1975 cells transfected with HA-ARIH1, treated with or without 5 μM LY for 6 h. e, f MFI (e) and relative quantification (f) of PD-L1 in HA-ARIH1-overexpressed H1975 cells, treated with or without 5 μM LY for 6 h. […]

EGFR T790M = EGFR T790M (Homo sapiens, UniProt P00533, T790M); test: In vitro kinase specificity profiling; format: biochemical
Chain of EGFR T790M (P00533 25-1210 T790M): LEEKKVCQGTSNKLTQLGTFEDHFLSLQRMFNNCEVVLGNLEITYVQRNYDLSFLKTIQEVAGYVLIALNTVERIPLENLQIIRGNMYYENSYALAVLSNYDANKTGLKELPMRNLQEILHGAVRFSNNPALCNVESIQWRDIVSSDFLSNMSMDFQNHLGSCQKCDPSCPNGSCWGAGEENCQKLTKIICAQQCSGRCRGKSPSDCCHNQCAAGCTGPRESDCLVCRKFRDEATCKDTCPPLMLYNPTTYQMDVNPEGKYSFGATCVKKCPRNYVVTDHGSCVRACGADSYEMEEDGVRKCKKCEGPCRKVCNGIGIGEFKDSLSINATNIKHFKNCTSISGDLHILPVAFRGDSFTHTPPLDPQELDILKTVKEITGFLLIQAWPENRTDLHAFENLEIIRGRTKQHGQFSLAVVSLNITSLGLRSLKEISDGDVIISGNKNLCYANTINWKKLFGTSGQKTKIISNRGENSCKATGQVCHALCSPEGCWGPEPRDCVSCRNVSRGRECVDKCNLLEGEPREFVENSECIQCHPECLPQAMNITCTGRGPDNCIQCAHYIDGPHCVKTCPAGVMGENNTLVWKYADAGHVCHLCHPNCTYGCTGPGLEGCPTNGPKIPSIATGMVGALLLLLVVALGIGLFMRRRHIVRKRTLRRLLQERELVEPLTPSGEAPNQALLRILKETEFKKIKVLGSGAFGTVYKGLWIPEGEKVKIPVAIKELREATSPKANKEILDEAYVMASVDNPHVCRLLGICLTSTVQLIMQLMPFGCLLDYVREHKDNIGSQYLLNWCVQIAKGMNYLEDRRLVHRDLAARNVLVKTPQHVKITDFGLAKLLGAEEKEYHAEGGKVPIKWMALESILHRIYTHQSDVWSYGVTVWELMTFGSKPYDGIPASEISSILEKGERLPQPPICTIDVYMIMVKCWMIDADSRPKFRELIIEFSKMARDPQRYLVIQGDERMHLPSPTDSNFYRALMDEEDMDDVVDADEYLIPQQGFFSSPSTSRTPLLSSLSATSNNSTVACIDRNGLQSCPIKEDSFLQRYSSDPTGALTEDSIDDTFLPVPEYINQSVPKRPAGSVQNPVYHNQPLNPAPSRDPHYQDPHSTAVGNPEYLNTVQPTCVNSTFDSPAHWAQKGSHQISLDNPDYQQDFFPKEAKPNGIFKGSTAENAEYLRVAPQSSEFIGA

IGF1R = IGF1R (Homo sapiens, UniProt P08069); test: In vitro kinase specificity profiling; format: biochemical
Chain of IGF1R (P08069 31-1367, species assumed): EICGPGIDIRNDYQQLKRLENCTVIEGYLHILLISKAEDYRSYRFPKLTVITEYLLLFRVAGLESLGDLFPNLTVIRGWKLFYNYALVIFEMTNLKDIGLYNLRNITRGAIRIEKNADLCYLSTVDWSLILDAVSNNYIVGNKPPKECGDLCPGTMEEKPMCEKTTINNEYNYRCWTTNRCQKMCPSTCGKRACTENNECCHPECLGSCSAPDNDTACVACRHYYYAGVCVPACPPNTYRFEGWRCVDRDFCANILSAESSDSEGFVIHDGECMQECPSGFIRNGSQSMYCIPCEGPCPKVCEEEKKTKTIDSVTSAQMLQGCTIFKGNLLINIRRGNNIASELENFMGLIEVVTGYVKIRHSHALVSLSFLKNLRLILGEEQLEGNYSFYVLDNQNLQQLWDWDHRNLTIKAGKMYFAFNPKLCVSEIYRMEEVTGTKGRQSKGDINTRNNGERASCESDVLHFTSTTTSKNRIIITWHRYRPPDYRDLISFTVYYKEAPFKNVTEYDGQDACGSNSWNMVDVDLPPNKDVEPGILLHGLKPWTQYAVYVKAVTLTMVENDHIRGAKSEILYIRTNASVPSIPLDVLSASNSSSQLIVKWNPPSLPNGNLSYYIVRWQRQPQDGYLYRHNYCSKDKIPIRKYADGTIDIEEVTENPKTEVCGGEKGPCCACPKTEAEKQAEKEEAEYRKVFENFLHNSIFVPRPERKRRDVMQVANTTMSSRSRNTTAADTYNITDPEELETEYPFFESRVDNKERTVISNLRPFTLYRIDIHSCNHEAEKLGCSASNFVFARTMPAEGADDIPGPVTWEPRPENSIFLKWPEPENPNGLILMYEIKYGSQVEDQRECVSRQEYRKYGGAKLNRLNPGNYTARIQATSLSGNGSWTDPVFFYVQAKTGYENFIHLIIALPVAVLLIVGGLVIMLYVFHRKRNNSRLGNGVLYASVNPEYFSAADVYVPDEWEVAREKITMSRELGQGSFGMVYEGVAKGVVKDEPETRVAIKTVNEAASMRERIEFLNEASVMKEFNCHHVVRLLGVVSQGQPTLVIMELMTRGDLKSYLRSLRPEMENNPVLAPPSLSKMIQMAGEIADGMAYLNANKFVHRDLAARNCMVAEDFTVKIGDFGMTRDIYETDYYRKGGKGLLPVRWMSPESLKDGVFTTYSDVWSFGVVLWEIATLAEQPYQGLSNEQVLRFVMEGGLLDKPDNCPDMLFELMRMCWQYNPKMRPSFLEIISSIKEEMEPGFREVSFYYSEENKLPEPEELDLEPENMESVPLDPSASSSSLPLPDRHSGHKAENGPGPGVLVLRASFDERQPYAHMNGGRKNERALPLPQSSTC

T790M/L858R EGFR = T790M/L858R EGFR (Homo sapiens, UniProt P00533, L858R/T790M); test: In vitro kinase specificity profiling; format: biochemical
Chain of T790M/L858R EGFR (P00533 25-1210 T790M/L858R): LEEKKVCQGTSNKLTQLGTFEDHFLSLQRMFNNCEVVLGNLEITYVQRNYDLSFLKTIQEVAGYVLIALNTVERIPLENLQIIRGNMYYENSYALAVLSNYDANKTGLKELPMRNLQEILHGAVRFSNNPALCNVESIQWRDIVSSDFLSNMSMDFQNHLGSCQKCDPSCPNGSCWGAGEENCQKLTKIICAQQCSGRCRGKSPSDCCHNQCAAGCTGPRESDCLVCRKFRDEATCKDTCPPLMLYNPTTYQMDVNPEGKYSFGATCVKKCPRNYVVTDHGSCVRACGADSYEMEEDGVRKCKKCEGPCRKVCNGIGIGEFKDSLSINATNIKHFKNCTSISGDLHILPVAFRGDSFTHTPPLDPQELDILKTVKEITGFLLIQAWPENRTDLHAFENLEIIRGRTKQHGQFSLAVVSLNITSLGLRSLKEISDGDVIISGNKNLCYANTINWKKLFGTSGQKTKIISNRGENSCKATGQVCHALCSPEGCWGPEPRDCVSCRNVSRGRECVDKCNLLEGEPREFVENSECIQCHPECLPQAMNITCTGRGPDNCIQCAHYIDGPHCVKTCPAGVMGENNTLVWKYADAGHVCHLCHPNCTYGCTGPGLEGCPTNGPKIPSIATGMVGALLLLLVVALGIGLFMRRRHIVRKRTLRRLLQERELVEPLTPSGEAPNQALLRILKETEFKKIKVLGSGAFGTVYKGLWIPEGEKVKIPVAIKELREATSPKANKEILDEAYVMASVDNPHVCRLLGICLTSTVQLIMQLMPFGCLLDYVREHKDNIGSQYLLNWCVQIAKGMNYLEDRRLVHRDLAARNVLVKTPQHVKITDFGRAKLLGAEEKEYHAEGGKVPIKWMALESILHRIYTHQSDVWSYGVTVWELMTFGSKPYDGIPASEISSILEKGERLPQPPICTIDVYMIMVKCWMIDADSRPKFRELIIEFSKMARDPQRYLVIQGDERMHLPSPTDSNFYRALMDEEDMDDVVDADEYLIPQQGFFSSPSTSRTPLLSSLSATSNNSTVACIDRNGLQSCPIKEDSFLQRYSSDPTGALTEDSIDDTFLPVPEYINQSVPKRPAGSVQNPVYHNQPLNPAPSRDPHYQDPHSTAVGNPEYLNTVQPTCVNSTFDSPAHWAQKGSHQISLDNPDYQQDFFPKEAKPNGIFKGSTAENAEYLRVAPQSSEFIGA

Chain of EGFR (P00533 25-1210): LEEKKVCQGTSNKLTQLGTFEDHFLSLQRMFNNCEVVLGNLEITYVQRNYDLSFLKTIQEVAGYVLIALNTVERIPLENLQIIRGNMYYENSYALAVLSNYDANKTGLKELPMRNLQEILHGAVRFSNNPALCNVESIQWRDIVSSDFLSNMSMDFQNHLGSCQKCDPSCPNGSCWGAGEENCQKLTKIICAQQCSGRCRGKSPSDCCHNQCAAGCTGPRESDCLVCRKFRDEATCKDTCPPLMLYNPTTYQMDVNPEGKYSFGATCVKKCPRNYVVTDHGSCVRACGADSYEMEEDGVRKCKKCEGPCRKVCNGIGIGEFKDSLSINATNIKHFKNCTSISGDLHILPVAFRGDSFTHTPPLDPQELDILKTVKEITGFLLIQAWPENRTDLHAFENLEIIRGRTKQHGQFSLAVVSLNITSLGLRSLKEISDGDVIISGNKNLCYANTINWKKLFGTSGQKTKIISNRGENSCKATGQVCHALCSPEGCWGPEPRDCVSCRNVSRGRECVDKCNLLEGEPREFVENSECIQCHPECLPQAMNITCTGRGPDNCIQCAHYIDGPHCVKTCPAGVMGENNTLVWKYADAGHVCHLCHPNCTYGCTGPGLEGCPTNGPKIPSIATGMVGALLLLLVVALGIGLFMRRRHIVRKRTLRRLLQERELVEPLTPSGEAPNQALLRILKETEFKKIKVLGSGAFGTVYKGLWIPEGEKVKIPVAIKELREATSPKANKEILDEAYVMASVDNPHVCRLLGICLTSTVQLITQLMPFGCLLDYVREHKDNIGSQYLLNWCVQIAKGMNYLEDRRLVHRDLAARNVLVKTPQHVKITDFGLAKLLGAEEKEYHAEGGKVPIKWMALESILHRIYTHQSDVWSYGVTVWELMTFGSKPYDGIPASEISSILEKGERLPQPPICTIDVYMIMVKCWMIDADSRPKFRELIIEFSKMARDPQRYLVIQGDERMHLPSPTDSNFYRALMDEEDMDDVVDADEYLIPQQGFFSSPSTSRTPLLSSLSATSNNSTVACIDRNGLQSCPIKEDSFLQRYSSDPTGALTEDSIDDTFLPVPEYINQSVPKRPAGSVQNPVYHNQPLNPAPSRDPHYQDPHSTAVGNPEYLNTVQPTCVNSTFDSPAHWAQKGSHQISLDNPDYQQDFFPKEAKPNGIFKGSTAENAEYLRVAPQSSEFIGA

## C=CC(=O)Nc1cccc(Nc2nc(Nc3ccc(N4CCN(C)CC4)nc3OC)ncc2C(F)(F)F)c1 [ES-072]
EGFR
  IC50: 8.9 nM
PD-L1 in H1975 cells
  PD-L1 level in whole cell lysate (WCL) and outer membrane protein (OMP): decreased
EGFR T790M
  IC50: < 0.5 nM
IGF1R
  IC50: 127 nM
T790M/L858R EGFR
  IC50: 1.75 nM
